Values of other authors, collected in patent US20250248977A1, “Tablet Formulation Of Tafamidis Or Pharmaceutically Acceptable Salt Thereof” (Navinta LLC, priority 2024, published 2025).

SMILES: O=C(O)c1ccc2nc(-c3cc(Cl)cc(Cl)c3)oc2c1 [Tafamidis, 2-(3,5-dichlorophenyl)-1,3-benzoxazole-6-carboxylic acid]
- aqueous solubility: low
